Results on 1 compound are retold here after patent publication US7238710B2, “EP4 receptor agonist, compositions and methods thereof” (Merck Frosst Canada, Ltd., priority 2003, dated 2007).

“Also recorded” adds a separate entry of the source.

One experiment has as its system bone marrow cells. In words: In situ hybridization of EP4 mRNA in bone tissue. It is filed as in vivo, rat. As to conditions: rats, single anabolic dose. The method, then: (§1) For mRNA localization experiments, 5-week old Sprague-Dawley rats (Charles River) are euthanized by CO2, their tibiae and calvariae are excised, cleaned of soft tissues and frozen immediately in liquid nitrogen. For EP4 regulation experiments, 6-week old rats are given a single injection of either vehicle (7% ethanol in sterile water) or an anabolic dose of PGE2 (Cayman Chemical, Ann Arbor, Mich.), 3-6 mg/kg in the same vehicle) intraperitoneally. Animals are euthanized at several time points post-injection and their tibiae and calvariae, as well as samples from lung and kidney tissues are frozen in liquid nitrogen.
Frozen tibiae are sectioned coronally at […] thickness and sections are mounted on charged slides (Probe On Plus, Fisher Scientific, Springfield, N.J.) and are kept at −70° C. until hybridization. cRNA probes are labeled with ^35S-UTPgS (ICN, Costa Mesa, Calif.) using a Riboprobe II kit (Promega Madison, Wis.). Hybridization is performed overnight at 50° C. […]
In situ hybridization is used in order to localize cells expressing EP4 in bone. In control experiment (vehicle-injected) rats, low expression of EP4 is detected in bone marrow cells. […]

Experiment [1] concerns RCT-3 cells. In words: EP4 mRNA expression (Northern blot) in RCT-3 cells. It is filed as cell-based, rat. The method, then: (§2) RCT-1 and RCT-3 are clonal cell lines immortalized by SV-40 large T antigen from cells released from fetal rat calvair by a cmbination collagenase/hyaluronidase digestion. RCT-1 cells, derived from cells released during the first 10 minutes of digestion (fraction I), are cultured in RPMI 1640 medium (BRL) with 10% fetal bovine serum and 0.4 mg/ml G418 (BRL). These cells differentiate and express osteoblastic features upon retinoic acid treatment. RCT-3 cells, immortalized from osteoblast-enriched fraction III cells, are cultured in F-12 medium (BRL) with 5% Fetal bovine serum and 0.4 mg/ml G418. TRAB-11 cells are also immortalized by SV40 large T antigen from adult rat tibia and are cultured in RPMI 1640 medium with 10% FBS and 0.4 mg/ml G418. ROS 17/2.8 rat osteosarcoma cells are cultured in F-12 containing 5% FBS. Osteoblast-enriched (fraction III) primary fetal rat calvaria cells are obtained by collagenase/hyaluronidase digestion of calvariae of 19 day-old rat fetuses. See Rodan et al., Growth stimulation of rat calvaria osteoblastic cells by acidic FGF, Endocrinology, 121, 1919-1923 (1987), which is incorporated by reference herein in its entirety. Cells are released during 30-50 minutes digestion (fraction III) and are cultured in F-12 medium containing 5% FBS. […]

Experiment [2] has as its system RCT-3 cells. In words: Intracellular cAMP in RCT-3 cells. It counts as cell-based, rat. The method, then: as §2
For a further experiment, the system named is RP-1 periosteal cells. In words: EP4 and EP2 mRNA expression (Northern blot) in RP-1 periosteal cells. It counts as cell-based, rat. As to conditions: RP-1 cells. As for the experimental part: RP-1 periosteal cells are spontaneously immortalized from primary cultures of periosteal cells from tibae of 4-week old Sprague-Dawley rats and are cultured in DMEM (BRL, Gaithersburg, Md.) with 10% fetal bovine serum (JRH Biosciences, Lenexa, Kans.).
(§3) Total RNA is extracted from the tibial metaphysis or diaphysis and calvaria using a guanidinium isothiocyanate-phenol-chloroform method after pulverizing frozen bone samples by a tissue homogenizer. See P. Chomczynski et al., Single-step method of RNA isolation by acid guanidium thiocyanate-phenol-chloroform extraction., Analyt Biochem, 162, 156-159 (1987), which is incorporated by reference herein in its entirety. RNA samples ([…]) are separated on 0.9% agarose/formaldehyde gels and transferred onto nylon membranes (Boehringer Mannheim, Germany). Membranes are prehybridized in Hybrisol I (Oncor, Gaithersburg, Md.) and 0.5 mg/ml sonicated salmon sperm DNA (Boehringer) at 42° C. for 3 hours and are hybridized at 42° C. with rat EP2 and mouse EP4 cDNA probes labeled with [^32P]dCTP (Amersham, Buckinghamshire, UK) by random priming using the rediprime kit (Amersham). After hybridization, membranes are washed 4 times in 2×SSC+0.1% SDS at room temperature for a total of 1 hour and once with 0.2×SSC+0.1% SDS at 55° C. for 1 hour and then exposed to Kodak XAR 2 film at −70° C. using intensifying screens. After developing the films, bound probes are removed twice with 0.1% SDS at 80° C. and membranes are hybridized with a human GAPDH (Glyceraldehyde 3-Phosphate Dehydrogenase) cDNA probe (purchased from Clontech, Palo Alto, Calif.) for loading control.
PGE2 enhances its own production via upregulation of cyclooxygenase 2 expression in osteoblasts and in bone tissue thus autoamplifying its own effects. PGE2 also increases the levels of EP4 mRNA. RP-1 cells are immortalized from a primary culture of adult rat tibia periosteum is examined. These cells express osteoblast phenotypic markers upon confluence and form mineralized bone matrix when implanted in nude mice. […]

Experiment [3] relates to ROS 17/2.8 rat osteosarcoma cells. In words: Intracellular cAMP in ROS 17/2.8 cells. It is filed as cell-based. The method, then: as §2
In experiment [4] the test system is bone tissue (tibia, calvaria). In words: EP4 and EP2 mRNA levels in vivo in bone tissue (Northern blot). Set-up: species or system rat. The method, then:
as §1
as §3, with “control. […]” for “control.”

In another experiment the test system is TRAB-11 cells. In words: Intracellular cAMP in TRAB-11 cells. It is filed as cell-based, rat. The method, then: as §2
Setting [5] is: five-week-old male rats, injected 3-6 mg/Kg.

Regarding `CCCCC[C@H](O)/C=C/[C@H]1[C@H](O)CC(=O)[C@@H]1C/C=C\CCCC(=O)O` [PGE2], in the experiment with bone marrow cells, the “expression of EP4 in bone marrow cells” value is on record as “increased”. Besides, the results for the “EP4 mRNA levels” value in the experiment on RCT-3 cells [1] and in the experiment on RP-1 periosteal cells (10^-6 M) were “no effect” and “rapidly increases”, respectively. The “effect on intracellular cAMP” value was “markedly induced” in the experiment on RCT-3 cells [2], “no effect” in experiment [3] and “markedly induced” in the experiment on TRAB-11 cells. In addition, the “EP2 mRNA” value with RP-1 periosteal cells is reported as “not expressed; also recorded: does not induce”. For the same compound, the “time of peak EP4 mRNA levels after treatment” value with RP-1 periosteal cells (10^-6 M) came to 2 h. The “EP4 mRNA levels in the tibial diaphysis” value in experiment [4] (setting [5]) is listed as “rapidly increased”. Besides, the “time of peak EP4 mRNA levels in the tibial diaphysis after injection” value in experiment [4] (setting [5]) is 2 h. The “EP2 mRNA in bone tissue” value in experiment [4] (rats) is listed as “does not induce”.
